Assay results published in US6624310B1, “Epothilone minor constituents” (Gesellschaft fuer Biotechnologische Forschung, mbH (GBF), priority 1998, dated 2003).
Converted amounts (≈) assume the structure as drawn.

test system: mouse fibroblasts (L929); test: Activity against mouse fibroblasts (L929); type: cell-based; conditions: not given

| Compound | Activity against mouse fibroblasts (L929, IC 50/ng/ml) |
| --- | --- |
| C/C(=C\c1csc(CO)n1)[C@@H]1C[C@@H]2O[C@]2(C)CCC[C@H](C)[C@H](O)[C@@H](C)C(=O)C(C)(C)[C@@H](O)CC(=O)O1 [Compound 4, Epothilone F, reference compound] | (4) 1.5 ng/ml |

same assay, conditions: L929 mouse fibroblasts

| Compound | Activity against mouse fibroblasts (L929, IC 50/ng/ml) |
| --- | --- |
| C/C(=C\c1csc(C)n1)[C@@H]1C/C=C\CCC[C@H](C)[C@H](O)[C@@H](C)C(=O)C(C)(C)[C@@H](O)CC(=O)O1 [Compound 14, Epothilone C, reference compound] | (14) 50-100 ng/ml |
| C/C(=C\c1csc(C)n1)[C@@H]1C/C=C\CC/C=C(\C)[C@H](O)[C@@H](C)C(=O)C(C)(C)[C@@H](O)CC(=O)O1 [Compound 22, Epothilone C5] | (22) 1500 ng/ml |
| C/C(=C\c1csc(C)n1)[C@@H]1C/C=C/CCC[C@H](C)[C@H](O)[C@@H](C)C(=O)[C@H](C)[C@@H](O)CC(=O)O1 (relative stereo) [Compound 29, trans-Epothilone C2] | (29) 80 ng/ml |
| C/C(=C\c1coc(C)n1)[C@@H]1C[C@@H]2O[C@]2(C)CCC[C@H](C)[C@H](O)[C@@H](C)C(=O)C(C)(C)[C@@H](O)CC(=O)O1 [Compound 11, Epothilone G2] | (11) 1 ng/ml |
| C/C1=C/C[C@@H](/C(C)=C/c2coc(C)n2)OC(=O)C[C@H](O)C(C)(C)C(=O)[C@H](C)[C@@H](O)[C@@H](C)CCC1 [Compound 13, Epothilone H2] | (13) 11 ng/ml |
| Cc1nc(/C=C/[C@@H]2C[C@@H]3O[C@@H]3CCC[C@H](C)[C@H](O)[C@@H](C)C(=O)C(C)(C)[C@@H](O)CC(=O)O2)cs1 [Compound 7, Epothilone A8] | (7) 20 ng/ml |
| Cc1nc(/C=C(\CO)[C@@H]2C/C=C\CCC[C@H](C)[C@H](O)[C@@H](C)C(=O)C(C)(C)[C@@H](O)CC(=O)O2)cs1 [Compound 27, Epothilone C9] | (27) 200 ng/ml |
| C/C(=C\c1csc(C)n1)[C@@H]1C[C@@H]2O[C@@H]2CCC[C@H](C)[C@H](O)[C@@H](C)C(=O)C(C)(C)[C@@H](O)CC(=O)O1 [Compound 1, Epothilone A, reference compound] | (1) 4 ng/ml |
| C/C(=C\c1csc(C)n1)[C@@H]1C/C=C\CCC[C@H](C)[C@H](O)CC(=O)C(C)(C)[C@@H](O)CC(=O)O1 [Compound 20, Epothilone C3] | (20) 1500 ng/ml |
| C/C1=C/C[C@@H](/C(C)=C/c2csc(C)n2)OC(=O)C[C@H](O)[C@@H](C)C(=O)[C@H](C)[C@@H](O)[C@@H](C)CCC1 [Compound 17, Epothilone D1] | (17) 20 ng/ml |
| Cc1nc(/C=C(\CO)[C@@H]2C[C@@H]3O[C@@H]3CCC[C@H](C)[C@H](O)[C@@H](C)C(=O)C(C)(C)[C@@H](O)CC(=O)O2)cs1 [Compound 8, Epothilone A9] | (8) 100 ng/ml |
| C/C(=C\c1coc(C)n1)[C@@H]1C/C=C\CCC[C@H](C)[C@H](O)[C@@H](C)C(=O)C(C)(C)[C@@H](O)CC(=O)O1 [Compound 12, Epothilone H1] | (12) 120 ng/ml |
| C/C(=C\c1csc(C)n1)[C@@H]1C/C=C\CCCC[C@H](O)[C@@H](C)C(=O)C(C)(C)[C@@H](O)CC(=O)O1 [Compound 21, Epothilone C4] | (21) 800 ng/ml |
| C/C(=C\c1csc(C)n1)[C@@H]1C[C@@H]2O[C@]2(C)CCC[C@H](C)[C@H](O)[C@@H](C)C(=O)C(C)(C)[C@@H](O)CC(=O)O1 [Compound 2, Epothilone B, reference compound] | (2) 1-2 ng/ml |
| C/C(=C\c1csc(CO)n1)[C@@H]1C[C@@H]2O[C@@H]2CCC[C@H](C)[C@H](O)[C@@H](C)C(=O)C(C)(C)[C@@H](O)CC(=O)O1 [Compound 3, Epothilone E, reference compound] | (3) 10 ng/ml |
| C/C(=C\c1csc(C)n1)[C@@H]1C/C=C/CCC[C@H](C)[C@H](O)[C@@H](C)C(=O)[C@@H](C)[C@@H](O)CC(=O)O1 (relative stereo) [Compound 28, trans-Epothilone C1] | (28) 400 ng/ml |
| C/C1=C/C[C@@H](/C(C)=C/c2csc(C)n2)OC(=O)C[C@H](O)C(C)(C)C(=O)[C@H](C)[C@@H](O)[C@@H](C)CCC1 [Compound 15, Epothilone D, reference compound] | (15) 20 ng/ml |
| C/C(=C\c1csc(C)n1)[C@@H]1C/C=C\CCC[C@H](C)[C@H](O)[C@@H](C)C(=O)[C@H](C)[C@@H](O)CC(=O)O1 [Compound 16, Epothilone C1] | (16) 200 ng/ml |
| Epothilone D5 [Compound 23] | (23) 200 ng/ml |
| C/C(=C\c1csc(C)n1)[C@@H]1C[C@@H]2O[C@@H]2CCC[C@H](C)[C@H](O)[C@@H](C)C(=O)[C@@H](C)[C@@H](O)CC(=O)O1 [Compound 6, Epothilone A2] | (6) 7 ng/ml |
| C/C(=C\c1csc(C)n1)[C@@H]1C[C@@H]2O[C@@H]2CCC[C@H](C)[C@H](O)[C@@H](C)C(=O)[C@H](C)[C@@H](O)CC(=O)O1 [Compound 5, Epothilone A1] | (5) 20 ng/ml |
| C/C1=C/C[C@@H](/C(C)=C/c2csc(C)n2)OC(=O)C[C@H](O)[C@H](C)C(=O)[C@H](C)[C@@H](O)[C@@H](C)CCC1 [Compound 19, Epothilone D2] | (19) 12 ng/ml |
| Cc1nc(/C=C/[C@@H]2C/C=C\CCC[C@H](C)[C@H](O)[C@@H](C)C(=O)C(C)(C)[C@@H](O)CC(=O)O2)cs1 [Compound 26, Epothilone C8] | (26) 250 ng/ml |

same assay, conditions: L929 mouse fibroblasts; read-out: Activity against mouse fibroblasts (L929, IC 50/ng/ml)

| Compound | IC50 [ng/mL] |
| --- | --- |
| CCc1nc(/C=C(\C)[C@@H]2C[C@@H]3O[C@]3(C)CCC[C@H](C)[C@H](O)[C@@H](C)C(=O)C(C)(C)[C@@H](O)CC(=O)O2)cs1 [Compound 9, Epothilone B10] | 1.5 (≈ 0.00288 µM) |
| C/C(=C\c1csc(C)n1)[C@@H](O)C/C=C\CCC[C@H](C)[C@H](O)[C@@H](C)C(=O)C(C)C [Compound 37] | 50 (≈ 0.123 µM) |
| C/C1=C/C[C@@H](/C(C)=C/c2csc(C)n2)OC(=O)C[C@H](O)C(C)C(=O)C(C)CCC1 (stereo partly shown) [Compound 36, Epothilone K] | 180 (≈ 0.429 µM) |
| C/C(=C\c1csc(C)n1)[C@@H]1C/C=C\C=C\C[C@H](C)[C@H](O)[C@@H](C)C(=O)C(C)(C)[C@@H](O)CC(=O)O1 [Compound 24, Epothilone C6] | 120 (≈ 0.252 µM) |
